Assay results published in patent US11013702B2, “Midodrine hydrochloride oral solution and uses thereof” (Vertice Pharma, LLC, priority 2017, dated 2021).

Experiment: Solubility of midodrine hydrochloride in various solvents and pH values
Type: physicochemical

Measured: solubility

COc1ccc(OC)c(C(O)CNC(=O)CN)c1.Cl (stereo not drawn) [Midodrine Hydrochloride, 2-amino-N-[2-(2,5-dimethoxyphenyl) -2-hydroxyethyl]acetamide hydrochloride]
> 10000 µg/mL: 0.01N hydrochloric acid, simulated gastric fluid | 0.1N hydrochloric acid, simulated gastric fluid | Simulated Gastric Fluid (SGF) pH 1.25 | aqueous buffer, Potassium Phosphate Buffer, pH 6.0 | potassium phosphate buffer, pH 2.5, aqueous buffer | potassium phosphate buffer, pH 3.5, aqueous buffer | potassium phosphate buffer, pH 4.5, aqueous buffer | potassium phosphate buffer, pH 5.5, aqueous buffer | potassium phosphate buffer, pH 6.8, aqueous buffer | potassium phosphate buffer, pH 7.2, aqueous buffer | potassium phosphate buffer, pH 7.5, aqueous buffer | water
